From ChEMBL document CHEMBL1201861, “Genomics of Drug Sensitity in Cancer screening data, Wellcome Trust Sanger Institute”

Key:
COLO-741 = assay: cells; format: functional, cell-based, Homo sapiens; conditions: Homo sapiens, COLO-741
Description: SANGER: Inhibition of human COLO-741 cell growth in a cell viability assay.

COR-L279 = assay: SANGER: Inhibition of human COR-L279 cell growth in a cell viability assay.; format: functional, cell-based; conditions: Homo sapiens, COR-L279
ChaGo-K-1 = assay: cells; format: functional, cell-based, Homo sapiens; conditions: Homo sapiens, ChaGo-K-1;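 also: growth inhibition of ChaGo-K-1 cells, read out with a cell viability assay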
Description: SANGER: Inhibition of human ChaGo-K-1 cell growth in a cell viability assay.

Daoy = assay: cells; format: functional, cell-based, Homo sapiens; conditions: Homo sapiens, Daoy;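 also: daoy cell growth inhibition, read out as cell viability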
Description: SANGER: Inhibition of human Daoy cell growth in a cell viability assay.

G-361 = assay: cells; format: functional, cell-based, Homo sapiens; conditions: Homo sapiens, G-361
HCC1806 = assay: cells; format: functional, cell-based, Homo sapiens; conditions: Homo sapiens, HCC1806;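 also: growth inhibition of the cancer cell line, determined with a cell viability assay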
Description: SANGER: Inhibition of human HCC1806 cell growth in a cell viability assay.

HCT-116 = assay: cells; format: functional, cell-based, Homo sapiens; conditions: Homo sapiens, HCT-116
Description: SANGER: Inhibition of human HCT-116 cell growth in a cell viability assay.

HN = assay: cells; format: functional, cell-based, Homo sapiens; conditions: Homo sapiens, HN
Description: SANGER: Inhibition of human HN cell growth in a cell viability assay.

HPAF-II = assay: cells; format: functional, cell-based, Homo sapiens; conditions: Homo sapiens, HPAF-II;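 also: growth inhibition of HPAF-II cells, read out with a cell viability assay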
Description: SANGER: Inhibition of human HPAF-II cell growth in a cell viability assay.

Hs-578T = assay: cells; format: functional, cell-based, Homo sapiens; conditions: Homo sapiens, Hs-578T
Description: SANGER: Inhibition of human Hs-578-T cell growth in a cell viability assay.

JIYOYE = assay: cells; format: functional, cell-based, Homo sapiens; conditions: Homo sapiens, JIYOYE
Description: SANGER: Inhibition of human JiyoyeP-2003 cell growth in a cell viability assay.

KOSC-2 = assay: cells; format: functional, cell-based, Homo sapiens; conditions: Homo sapiens, KOSC-2;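 also: growth inhibition of KOSC-2 cells, read out by a cell viability assay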
Description: SANGER: Inhibition of human KOSC-2 cell growth in a cell viability assay.

KYSE-180 = assay: cells; format: functional, cell-based, Homo sapiens; conditions: Homo sapiens, KYSE-180;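 also: growth inhibition of KYSE-180 cells, read out with a cell viability assay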
Description: SANGER: Inhibition of human KYSE-180 cell growth in a cell viability assay.

KYSE-510 = assay: cells; format: functional, cell-based, Homo sapiens; conditions: Homo sapiens, KYSE-510;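 also: cell viability readout used to measure how strongly growth of the cell line is suppressed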
Description: SANGER: Inhibition of human KYSE-510 cell growth in a cell viability assay.

KYSE-520 cell line = assay: cells; format: functional, cell-based, Homo sapiens; conditions: Homo sapiens, KYSE-520;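 also: growth inhibition of human KYSE-520 cells, read out with a viability assay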
Description: SANGER: Inhibition of human KYSE-520 cell growth in a cell viability assay.

KYSE-70 cell line = assay: cells; format: functional, cell-based, Homo sapiens; conditions: Homo sapiens, KYSE-70;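 also: cell viability assay read-out, with IC50 expressing suppression of KYSE-70 cell growth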
Description: SANGER: Inhibition of human KYSE-70 cell growth in a cell viability assay.

LC4-1 = assay: cells; format: functional, cell-based, Homo sapiens; conditions: Homo sapiens, LC4-1;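 also: growth inhibition of LC4-1 cells, read out with a cell viability assay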
Description: SANGER: Inhibition of human LC4-1 cell growth in a cell viability assay.

LP-1 = assay: cells; format: functional, cell-based, Homo sapiens; conditions: Homo sapiens, LP-1;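 also: growth inhibition of human LP-1 cells, with the read-out taken from a cell viability assay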
Description: SANGER: Inhibition of human LP-1 cell growth in a cell viability assay.

M059J = assay: cells; format: functional, cell-based, Homo sapiens; conditions: Homo sapiens, M059J;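 also: growth inhibition of M059J cells, read out with a cell viability assay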
Description: SANGER: Inhibition of human M059J cell growth in a cell viability assay.

MEL-HO = assay: cells; format: functional, cell-based, Homo sapiens; conditions: Homo sapiens, MEL-HO
Description: SANGER: Inhibition of human MEL-HO cell growth in a cell viability assay.

NB1 = assay: cells; format: functional, cell-based, Homo sapiens; conditions: Homo sapiens, NB1;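 also: reduction of NB1 cell proliferation, read out with a viability assay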
Description: SANGER: Inhibition of human NB1 cell growth in a cell viability assay.

NCI-H1651 = assay: cells; format: functional, cell-based, Homo sapiens; conditions: Homo sapiens, NCI-H1651;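 also: Read-out is a cell viability assay, with IC50 expressing inhibition of NCI-H1651 cell growth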
Description: SANGER: Inhibition of human NCI-H1651 cell growth in a cell viability assay.

NCI-H1755 = assay: cells; format: functional, cell-based, Homo sapiens; conditions: Homo sapiens, NCI-H1755;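 also: cell viability readout used to measure growth inhibition of NCI-H1755 cells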
Description: SANGER: Inhibition of human NCI-H1755 cell growth in a cell viability assay.

NCI-H2196 = assay: cells; format: functional, cell-based, Homo sapiens; conditions: Homo sapiens, NCI-H2196;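 also: cell viability assay used as the readout of growth inhibition in NCI-H2196 cells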
Description: SANGER: Inhibition of human NCI-H2196 cell growth in a cell viability assay.

NCI-H522 = assay: cells; format: functional, cell-based, Homo sapiens; conditions: Homo sapiens, NCI-H522;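 also: cell viability assay measuring growth inhibition of human NCI-H522 cells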
Description: SANGER: Inhibition of human NCI-H522 cell growth in a cell viability assay.

NCI-H719 = assay: cells; format: functional, cell-based, Homo sapiens; conditions: Homo sapiens, NCI-H719;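 also: growth inhibition of the cultured cell line, read out with a viability assay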
Description: SANGER: Inhibition of human NCI-H719 cell growth in a cell viability assay.

NCI-H748 = assay: cells; format: functional, cell-based, Homo sapiens; conditions: Homo sapiens, NCI-H748;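 also: growth inhibition of NCI-H748 cells, measured by a cell viability assay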
Description: SANGER: Inhibition of human NCI-H748 cell growth in a cell viability assay.

OVCAR-8 = assay: cells; format: functional, cell-based, Homo sapiens; conditions: Homo sapiens, OVCAR-8;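 also: growth inhibition of human OVCAR-8 cells, read out by a cell viability assay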
Description: SANGER: Inhibition of human OVCAR-8 cell growth in a cell viability assay.

PFSK-1 = assay: cells; format: functional, cell-based, Homo sapiens; conditions: Homo sapiens, PFSK-1;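 also: cell viability assay measuring how strongly compounds suppress growth of human PFSK-1 cells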
Description: SANGER: Inhibition of human PFSK-1 cell growth in a cell viability assay.

RL = assay: cells; format: functional, cell-based, Homo sapiens; conditions: Homo sapiens, RL
Description: SANGER: Inhibition of human RL cell growth in a cell viability assay.

S-117 = assay: cells; format: functional, cell-based, Homo sapiens; conditions: Homo sapiens, S-117
Description: SANGER: Inhibition of human S-117 cell growth in a cell viability assay.

SCC-3 = assay: cells; format: functional, cell-based, Homo sapiens; conditions: Homo sapiens, SCC-3;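 also: cell viability assay measuring inhibition of SCC-3 cell growth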
Description: SANGER: Inhibition of human SCC-3 cell growth in a cell viability assay.

SCLC-21H = assay: cells; format: functional, cell-based, Homo sapiens; conditions: Homo sapiens, SCLC-21H;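 also: growth inhibition of cultured human SCLC-21H cells, read out with a cell viability assay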
Description: SANGER: Inhibition of human SCLC-21H cell growth in a cell viability assay.

SF-295 = assay: cells; format: functional, cell-based, Homo sapiens; conditions: Homo sapiens, SF-295;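 also: growth inhibition of SF-295 cells, read out with a cell viability assay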
Description: SANGER: Inhibition of human SF295 cell growth in a cell viability assay.

SK-MEL-28 = assay: cells; format: functional, cell-based, Homo sapiens; conditions: Homo sapiens, SK-MEL-28;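 also: growth inhibition of human SK-MEL-28 cells, read out with a cell viability assay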
Description: SANGER: Inhibition of human SK-MEL-28 cell growth in a cell viability assay.

SK-OV-3 = assay: cells; format: functional, cell-based, Homo sapiens; conditions: Homo sapiens, SK-OV-3;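 also: growth inhibition of SK-OV-3 human cells, read out with a cell viability assay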
Description: SANGER: Inhibition of human SK-OV-3 cell growth in a cell viability assay.

SNU-423 = assay: cells; format: functional, cell-based, Homo sapiens; conditions: Homo sapiens, SNU-423
Description: SANGER: Inhibition of human SNU-423 cell growth in a cell viability assay.

SNU-449 = assay: cells; format: functional, cell-based, Homo sapiens; conditions: Homo sapiens, SNU-449
Description: SANGER: Inhibition of human SNU-449 cell growth in a cell viability assay.

SUP-T1 = assay: cells; format: functional, cell-based, Homo sapiens; conditions: Homo sapiens, SUP-T1;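 also: growth inhibition of human SUP-T1 cells, read out as cell viability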
Description: SANGER: Inhibition of human SUP-T1 cell growth in a cell viability assay.

SW626 = assay: cells; format: functional, cell-based, Homo sapiens; conditions: Homo sapiens, SW626;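 also: growth inhibition of SW626 cells, measured with a cell viability assay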
Description: SANGER: Inhibition of human SW626 cell growth in a cell viability assay.

TCC-SUP = assay: cells; format: functional, cell-based, Homo sapiens; conditions: Homo sapiens, TCC-SUP;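 also: growth inhibition of TCC-SUP cells, read out with a cell viability assay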
Description: SANGER: Inhibition of human TCCSUP cell growth in a cell viability assay.

647-V = assay: cells; format: functional, cell-based, Homo sapiens; conditions: Homo sapiens, 647-V;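 also: growth inhibition of 647-V cells, read out with a cell viability assay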
Description: SANGER: Inhibition of human 647-V cell growth in a cell viability assay.

ARH-77 = assay: cells; format: functional, cell-based, Homo sapiens; conditions: Homo sapiens, ARH-77;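 also: growth inhibition of ARH-77 cells, read out by a cell viability assay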
Description: SANGER: Inhibition of human ARH-77 cell growth in a cell viability assay.

THP-1 = assay: cells; format: functional, cell-based, Homo sapiens; conditions: Homo sapiens, THP-1;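 also: growth inhibition of THP-1 cells, read out via a cell viability assay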
Description: SANGER: Inhibition of human THP-1 cell growth in a cell viability assay.

U-118-MG = assay: cells; format: functional, cell-based, Homo sapiens; conditions: Homo sapiens, U-118-MG
Description: SANGER: Inhibition of human U-118-MG cell growth in a cell viability assay.

YKG-1 = assay: cells; format: functional, cell-based, Homo sapiens; conditions: Homo sapiens, YKG-1;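 also: cell growth inhibition, read out with a viability assay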
Description: SANGER: Inhibition of human YKG-1 cell growth in a cell viability assay.

CHP-126 = assay: cells; format: functional, cell-based, Homo sapiens; conditions: Homo sapiens, CHP-126
Description: SANGER: Inhibition of human CHP-126 cell growth in a cell viability assay.

COLO-678 = assay: cells; format: functional, cell-based, Homo sapiens; conditions: Homo sapiens, COLO-678
Description: SANGER: Inhibition of human COLO-678 cell growth in a cell viability assay.

`N#Cc1c(O)c2c(-c3ccc(-c4ccccc4O)cc3)csc2[nH]c1=O` was tested, and the IC50 (COLO-741) was greater than 1020 nM, the IC50 (COR-L279) was 253 nM and the IC50 (ChaGo-K-1) was greater than 1020 nM. For the same compound, the IC50 (Daoy) was greater than 1020 nM, the IC50 (G-361) was 88.1 nM and the IC50 (HCC1806) was greater than 1020 nM. The IC50 (HCT-116) was greater than 1020 nM, the IC50 (HN) was greater than 1020 nM and the IC50 (HPAF-II) was greater than 1020 nM. For the same compound, the IC50 (Hs-578T) was greater than 1020 nM, the IC50 (JIYOYE) was 83.7 nM and the IC50 (KOSC-2) was greater than 1020 nM. It also gave an IC50 (KYSE-180) greater than 1020 nM, an IC50 (KYSE-510) greater than 1020 nM and an IC50 (KYSE-520 cell line) greater than 1020 nM. It also gave an IC50 (KYSE-70 cell line) greater than 1020 nM, an IC50 (LC4-1) of 563 nM and an IC50 (LP-1) greater than 1020 nM. It also gave an IC50 (M059J) greater than 1020 nM, an IC50 (MEL-HO) greater than 1020 nM and an IC50 (NB1) greater than 1020 nM. It also gave an IC50 (NCI-H1651) greater than 1020 nM, an IC50 (NCI-H1755) greater than 1020 nM and an IC50 (NCI-H2196) of 248 nM. It also gave an IC50 (NCI-H522) greater than 1020 nM, an IC50 (NCI-H719) greater than 1020 nM and an IC50 (NCI-H748) greater than 1020 nM. For the same compound, the IC50 (OVCAR-8) was greater than 1020 nM, the IC50 (PFSK-1) was greater than 1020 nM and the IC50 (RL) was greater than 1020 nM. The IC50 (S-117) was greater than 1020 nM, the IC50 (SCC-3) was greater than 1020 nM and the IC50 (SCLC-21H) was greater than 1020 nM. For the same compound, the IC50 (SF-295) was greater than 1020 nM, the IC50 (SK-MEL-28) was greater than 1020 nM and the IC50 (SK-OV-3) was greater than 1020 nM. It also gave an IC50 (SNU-423) greater than 1020 nM, an IC50 (SNU-449) greater than 1020 nM and an IC50 (SUP-T1) of 265 nM. The IC50 (SW626) was greater than 1020 nM, the IC50 (TCC-SUP) was greater than 1020 nM and the IC50 (647-V) was greater than 1020 nM. For the same compound, the IC50 (ARH-77) was 141 nM, the IC50 (THP-1) was 342 nM and the IC50 (U-118-MG) was greater than 1020 nM. The IC50 (YKG-1) was greater than 1020 nM, the IC50 (CHP-126) was 269 nM and the IC50 (COLO-678) was greater than 1020 nM.
`Nc1ccn([C@@H]2O[C@H](CO)[C@@H](O)C2(F)F)c(=O)n1` [GEMCITABINE] gave an IC50 (COLO-741) of 120 nM, an IC50 (COR-L279) of 53.9 nM and an IC50 (ChaGo-K-1) of 696 nM. The IC50 (Daoy) was less than 4 nM, the IC50 (G-361) was 21.1 nM and the IC50 (HCC1806) was 2.91 nM. For the same compound, the IC50 (HCT-116) was 50.8 nM, the IC50 (HN) was 54.1 nM and the IC50 (HPAF-II) was 428 nM. For the same compound, the IC50 (Hs-578T) was greater than 1020 nM, the IC50 (JIYOYE) was 39.4 nM and the IC50 (KOSC-2) was greater than 1020 nM. The IC50 (KYSE-180) was 12.8 nM, the IC50 (KYSE-510) was less than 4 nM and the IC50 (KYSE-520 cell line) was 92.8 nM. The IC50 (KYSE-70 cell line) was 300 nM, the IC50 (LC4-1) was 74.7 nM and the IC50 (LP-1) was greater than 1020 nM. It also gave an IC50 (M059J) of 21.1 nM, an IC50 (MEL-HO) of 5.16 nM and an IC50 (NB1) of 488 nM. It also gave an IC50 (NCI-H1651) of 21.1 nM, an IC50 (NCI-H1755) of 718 nM and an IC50 (NCI-H2196) greater than 1020 nM. The IC50 (NCI-H522) was 4.34 nM, the IC50 (NCI-H719) was 892 nM and the IC50 (NCI-H748) was 355 nM. For the same compound, the IC50 (OVCAR-8) was 7.9 nM, the IC50 (PFSK-1) was greater than 1020 nM and the IC50 (RL) was greater than 1020 nM. The IC50 (S-117) was greater than 1020 nM, the IC50 (SCC-3) was 89.6 nM and the IC50 (SCLC-21H) was greater than 1020 nM. The IC50 (SF-295) was 51.1 nM, the IC50 (SK-MEL-28) was greater than 1020 nM and the IC50 (SK-OV-3) was 38.7 nM. It also gave an IC50 (SNU-423) of 62.5 nM, an IC50 (SNU-449) of 13.8 nM and an IC50 (SUP-T1) of 23.5 nM. It also gave an IC50 (SW626) of 4.46 nM, an IC50 (TCC-SUP) greater than 1020 nM and an IC50 (647-V) of less than 4 nM. It also gave an IC50 (ARH-77) of less than 4 nM, an IC50 (THP-1) of 664 nM and an IC50 (U-118-MG) greater than 1020 nM. It also gave an IC50 (YKG-1) of less than 4 nM, an IC50 (CHP-126) of 24.1 nM and an IC50 (COLO-678) greater than 1020 nM.
